Entries after “also recorded” stand apart in the source; their conditions may differ. Values belong to the molecule of their own block, whether it stands above or below them.
Assays:
[1] = system: peritumor microvessel blood flow; test: Tumor microvascular blood flow (laser Doppler); assay type: in vivo, mice; settings: intratumoral injection; AOAA 9 mg/kg, L-cysteine 1 mg/kg
Experimental: FIG. 6. L-Cysteine increases, while AOAA reduces microvessel blood flow in tumor bearing mice. Tumor bearing mice were anesthetized by i.p. injection of ketamine-xylazine and a laser Doppler (PeriFlux system 5000) was placed on top of the tumor for microvessel blood flow measurements. After a stabilization period, L-Cys or AOAA were injected subcutaneously in proximity of the tumor. […] Data represent mean±SEM of n=6 determinations.
Skin microvascular blood flow was measured using a PeriFlux 5000 laser-Doppler flowmeter. Mice bearing PTX were anesthetized by ketamine-xylazine (i.p.). The laser-Doppler probe was placed on top of the tumors and a stable basal signal was recorded. Changes in the subcutaneous microcirculatory perfusion were detected following intratumoral injections of either L-cysteine (1 mg/kg) or AOAA (9 mg/kg).

[2] = system: mitochondria isolated from HCT116 cells; test: Bioenergetic analysis in isolated mitochondria; assay type: cell-based, human; settings: L-cysteine 30 nM; mitochondria from control shNT cells
Experimental: Bioenergetic measurements in mitochondria isolated from shNT and shCBS HCT-116 cells were conducted in the absence or presence of L-cysteine (30 nM) (Módis et al. (2013) FASEB J 27:601-11; Wu et al. (2007) Am J Physiol Cell Physiol. 292:C125-36). Basal respiration (State 2) in the presence of succinate and rotenone was measured, followed by State 3 (phosphorylating respiration), in the presence of ADP. State 4o was determined after the addition of oligomycin, and maximal uncoupler-stimulated respiration (State 3u) was assessed in the presence of FCCP.

HCT116 cells = test: HCT116 cell migration and invasion (Transwell); assay type: cell-based, human; settings: NaHS 30 μM in lower chamber; serum-free media
Experimental: FIG. 3. […] (A, B) The lentiviral shRNA vectors targeting CBS (shCBS) and CSE (shCSE) were transfected into HCT116 cells. A non-targeting sequence was used as control (shNT). […] Following CBS and CSE silencing, cells were seeded at the density of 3000 cells/well in xCELLigence plates and proliferation was monitored for 36 hours. […] The NCM356 cells were infected overnight with a CBS expressing adenovirus (Ad-CBS, 10 multiplicity of infection (MOI)) or its control, a green fluorescent protein (Ad-GFP). The culture media was then replaced and cells were seeded in XCelligence plates at 3000 cells/well. Cell proliferation was then measured real-time over 36 hours. […] (H, I) The effect of AOAA and NaHS was also tested on HCT116 cell migration (H) and invasion (I). Cells were pretreated either with vehicle or AOAA (1 mM) and seeded in serum-free DMEM (0.1% albumin) in the upper chamber of a trans-well insert uncoated (migration assay) or coated with growth factor reduced matrigel (invasion assay). Migration and invasion were stimulated by fibroblast-conditioned media in the lower chamber for 6 and 24 hours, respectively. […] (J) In a co-culture of human endothelial cells (EAhy926) and colon cancer cells (HCT116), HCT 116 cells were seeded in the lower chamber of a trans-well insert and cultured to confluence. Endothelial cells were then seeded into the upper chamber in serum-free DMEM and allowed to migrate for 4 hours at 37° C. […] Western blots are representative of at least three independent experiments; proliferation/migration/invasion assays and H2S measurements represent mean±SEM of n=3 determinations.
(§1) Cellular migration and invasion assays were performed as described (Chao et al. (1996) Cancer Res. 56:4811-19). Briefly, 10^5 cells were suspended in serum-free media containing 0.1% BSA and then added to 6.5 mm Transwell chambers ([…]) uncoated (migration assay) or coated with a thin layer (45 μl) of growth factor reduced matrigel (cell invasion assay). Cells were allowed to migrate toward the bottom chamber containing fibroblast (NIH-3T3 cells) conditioned media at 37° C. for 6 or 24 h for cell migration and invasion, respectively. Migrated and invaded cells were then fixed in Carson's fixative, stained in 0.33% toluidine blue and quantified by visual counting. For the HCT116-EAhy926 co-culture experiment, the cancer cell line was grown to confluence in the bottom wells of the transwell chambers and then endothelial cell migration was assessed (Coletta et al. (2012) Proc Natl Acad Sci USA. 109:9161-66).

HCT116 colon cancer cell = HCT116 colon cancer cell proliferation (xCELLigence); assay type: cell-based, human; settings: for inhibition at 300 µM / IC50: Homo sapiens, HCT-116; for IC50: read-out: IC50 (μM), inhibition of HCT116 colon cancer cell proliferation
Experimental: Cellular proliferation assays are conducted in HCT116 CRC cells in vitro, using the Roche XCelligence method. Concentration-response curves with the various AOAA analogs are prepared (concentration range: 1, 3, 10, 100, 300 and 600 μM). AOAA is used as the reference control, which, according to preliminary data, has an IC50 of approximately 300 μM. Control proliferation studies in the non-carcinogenic colonic epithelial cell line NCM356 are used to confirm cancer-cell selectivity. Since the NCM356 cells contain low levels of CBS, based on previous studies it is expect that AOAA (and its prodrugs) will only exert modest antiproliferative effects in these cells. Proliferation-inhibitory effects of the AOAA prodrugs in NCM356 cells indicate CBS-independent pharmacological actions. A collection of human colorectal tumor tissue samples (and surrounding non-cancerous tissue) are used to test the conversion of the AOAA prodrugs to AOAA in a number of cancer samples.
as §1, with “109:9161-66). For assessment of colon cell proliferation, the xCELLigence system (Roche) was used (Szabo and Papapetropoulos (2011) Br J Pharmacol. 164:853-65).” for “109:9161-66).”
For assessment of cell proliferation, the xCELLigence system (Roche) was used. Briefly, HCT116 cells were cultured until approximately 70% confluence. Cells were then detached by Trypsin-EDTA and resuspended in fresh culture media at a concentration of 30,000 cells/ml. 200 μl of cell suspension was added to each well (6,000 cells/well) of a E-plate 96, a specially designed 96-well microtiter plate containing interdigitated microelectrodes to non-invasively monitor the cell proliferation by measuring the relative change in the electrical impedance of the cell monolayer, a unitless parameter named cell index (CI). Cells were then treated with YD02-51 and proliferation was monitored for 48 hours.

HCT116 tumor xenografts = test: HCT116 tumor xenograft in nude mice; assay type: in vivo, Nu/nu Balb/C female mice; settings: 0.1, 0.5 or 1 mg/kg s.c. 6 days/week; harvest Day 28
Experimental: Nu/nu Balb/C female mice (8-10 weeks) were injected subcutaneously in the right and left dorsum (10^6 cells/side with HCT-116 cells). One week later, the mice were randomized and subcutaneous injections of phosphate buffered saline (PBS) or AOAA (9 mg/kg/day) were performed 6 days/week. Tumor diameters were measured transcutaneously using calipers and tumor volumes were calculated using the formula V=(π/6)hd^2. T-test comparisons of the tumor volumes and final weights at harvest were performed. Xenotrials with patient-derived xenografts (PTX) were performed on nu/nu mice implanted subcutaneously with a piece of Passage 2 tumor measuring 2-5 mm^3 each. When a small palpable tumor was evident at 7-10 days, the mice with tumor take were randomized and subjected to subcutaneous injection of vehicle or AOAA (9 mg/kg/day) 6 days/week. Specimens were fixed with 10% formalin and embedded in paraffin. 5 μm sections were stained with hematoxylin and eosin. Each in vivo experiment was repeated at least twice.
Tissue preparation, immunostaining of CD31, and evaluation of microvessel density with the Chakley reticle was performed as described (Chao et al. (1996) Cancer Res. 56:4811-19).
Nu/nu Balb/c female mice (8-10 weeks) were injected subcutaneously in the right and left dorsum (10^6 cells/side with HCT116 cells). One week later, the mice were randomized and subcutaneous injection of phosphate buffered saline (PBS control) or YD2-51 (0.1, 0.5 or 1 mg/kg) was performed 6 days/week. Tumor volumes and final weights at harvest (post-tumor injection Day 28) were performed and tumor weight/animal weight ratios calculated.

SMILES: N[C@@H](CS)C(=O)O [L-cysteine]
peritumor / skin microvessel blood flow [1]: increased
OCR in state 3 and state 3u respiration [2]: elevates OCR

SMILES: [Na+].[SH-] [NaHS, sodium hydrogen sulfide]
HCT116 cell invasion (HCT116 cells): slightly enhanced
HCT116 cell migration (HCT116 cells): slightly enhanced

IC50 (HCT116 colon cancer cell): 181 µM
SMILES: COC(=O)CON [YD-1-71, aminooxyacetic acid methyl ester]
antiproliferative effect in HCT116 compared with parent AOAA (HCT116 colon cancer cell; HCT116): markedly enhances the antiproliferative effect; also recorded: substantially lower concentrations
inhibition at 300 µM (HCT116 colon cancer cell; HCT116): 80%

IC50 (HCT116 colon cancer cell): 159 µM
SMILES: NOCC(=O)OCc1ccccc1 [YD-2-22]
inhibition at 300 µM (HCT116 colon cancer cell; HCT116): 91%

IC50 (HCT116 colon cancer cell): 207 µM
SMILES: CC(C)(C)OC(=O)NOCC(=O)O [YD-2-23]
inhibition at 300 µM (HCT116 colon cancer cell; HCT116): 71%

SMILES: CCC(CC)OC(=O)CON [YD-2-51, pentan-3-yl 2-(aminooxy)acetate]
tumor cell proliferation (cell index) (HCT116 colon cancer cell; HCT116, 6,000 cells/well, monitored 48 hours): potent, concentration-dependent inhibition
tumor growth in tumor-bearing mice (HCT116 tumor xenografts): inhibited tumor growth

— US10335382B2, “Use of hydrogen sulfide synthesis inhibitors for cancer therapy” (THE BOARD OF REGENTS OF THE UNIVERSITY OF TEXAS SYSTEM, priority 2013, dated 2019)
